Experimental data taken from patent US20240139149A1, “THERAPEUTIC USES OF UROLITHIN DERIVATIVES” (Vandria SA, priority 2022, published 2024).

Experiments:
Assay type in all cases: cell-based
mouse T lymphocytes = assay: Mitochondrial content (Mitotracker positive cells) in mouse T lymphocytes; details: 2 μM, 72 h
Description: Splenic murine T cells were isolated from mice aged 6-20 weeks by negative selection with EasySep mouse T cell isolation kit (Stem cell) according to the manufacturer's instructions. T cell activation was initiated using CD3/CD28 activation beads (11456D; ThermoFisher Scientific) at a ratio of 25 μl dynabeads per 0.5×10^6 T-cells. Cells were activated with test compounds at 2 μM or DMSO in T cell activation Medium (RPMI (ThermoFisher Scientific) 10% FBS (South America origin), 10 mM Hepes (Sigma), 1× Non-Essential Amino Acid, 1 mM Sodium Pyruvate, 50 μM β-Mercaptoethanol, 100 U/ml penicillin, 100 μg/ml streptomycin and 2 mM Glutamax (ThermoFisher Scientific) for 72 h. For subsequent analysis, activating beads were magnetically removed prior staining.
For flow cytometric analysis of mitochondria 500 μl of Mitotracker Red (200 nM; ThermoFisher) was applied followed by surface staining.
Cell doublets and cells debris were excluded from the analysis by gating FSC-A vs FSC-H followed by SSC-A vs SSC-H dot plots and FSC-A vs SSC-A dot plots, respectively. eFluor 780 highly positive cells, i.e, dead cells, were gated out of the analysis. Data was acquired on Canto II (BD), Fortessa (BD) and Aurora (Cytek) cytometers and analyzed with FlowJo.

[1] = system: cortical neurons and microglial cells injured with Aβ1-42; assay: Rat primary culture of cortical neurons and microglial cells injured with Aβ1-42
Description: Pregnant female rat (Wistar) of 15 days of gestation were killed using a deep anesthesia with CO2 chamber and a cervical dislocation. Fetuses were collected and immediately placed in ice-cold L15 Leibovitz medium with a 2% penicillin (10,000 U/mL) and streptomycin (10 mg/mL) solution (PS) and 1% bovine serum albumin (BSA). Cortex were specifically dissected and then were treated for 20 min at 37° C. with a trypsin-EDTA solution at a final concentration of 0.05% trypsin and 0.02% EDTA. The dissociation was stopped by addition of Dulbecco's modified Eagle's medium (DMEM) with 4.5 g/L of glucose, containing DNAse I grade II (final concentration 0.5 mg/mL) and 10% fetal calf serum (FCS). Cells were mechanically dissociated by three forced passages through the tip of a 10-mL pipette. Cells were then centrifuged at 515×g for 10 min at 4° C. The supernatant was discarded, and the pellet was resuspended in a defined culture medium consisting of Neurobasal medium with a 2% solution of B27 supplement, 2 mmol/liter of L-glutamine, 2% of PS solution, 10 ng/mL of brain-derived neurotrophic factor (BDNF), 2% of heat-inactivated horse serum, 2% of heat-inactivated FCS, 1 g/L of glucose, 1 mM of sodium pyruvate, and 100 μM of non-essential amino acids. The presence of serum in the medium allows the growth of the microglial cells. Viable cells were counted in a Neubauer cytometer, using the trypan blue exclusion test.
The cells were seeded at a density of 45 000 per well in 96-well plate precoated with poly-L-lysine and were cultured at 37° C. in an air (95%)—CO2 (5%) incubator. The medium was changed every 2 days.
On day 11 of culture, the compounds were dissolved in the appropriate vehicle and pre-incubated with the primary cortical neurons for one hour (1 h), before Aβ1-42 exposure.
On day 11 of culture, the cortical neurons were injured with the AP 1-42 peptide. AP 1-42 peptide was dissolved in the defined culture medium mentioned above, at an initial concentration of 20 μM. The solution was gently agitated for 3 days at 37° C. in the dark and immediately used after being properly diluted in culture medium to the concentration used (5 μM, 0.5 μM oligomers precisely evaluated by automatic WB). The AP 1-42 solution was applied on the culture at […] (0.5 μM oligomers, AβO), in presence of the compound, for 72 hours.
72 hours after the application of Aβ, the cell culture supernatant was removed. Cells were then washed with phosphate-buffered saline (PBS) and fixed with a cold solution of ethanol (95%) and acetic acid (5%) for 5 min at −20° C. After two washing steps with cold PBS, cells permeabilized and unspecific binding sites were blocked with a solution of PBS containing 0.1% of saponin and 1% of FCS, for 15 min at RT. Cells were incubated for 2 hours with: • a) Monoclonal anti-MAP2 antibody produced in mouse at dilution of 1/400 in PBS containing 1% FCS, 0.1% saponin, for 2 hours at room temperature. • b) Rabbit polyclonal antibody anti-SIRP alpha/CD172a (OX-41) at dilution of 1/400 in PBS containing 1% fetal calf serum and 0.1% of saponin (this antibody stains specifically the microglia and will allow to evaluate the activation of the microglial cells).
For each condition, 30 pictures (representative of the whole well area) were automatically taken using ImageXpress® (Molecular Devices) at 20× magnification using the same acquisition parameters. From images, the analyses were automatically performed by MetaXpress® (Molecular Devices). The following read-outs were measured: • Total neuron survival (number of MAP-2(+) neurons), • Total length of neurite network of MAP-2(+) neurons (in μm) • Total area of activated microglia (area of OX-41 signal, in μm^2)
All values are expressed as mean+/−SEM (standard error of the mean). Statistical analysis was performed by one-way ANOVA followed by Fisher's LSD test, with GraphPad Prism. p<0.05 was considered significant.

splenic murine T cells = assay: Murine T cells stimulated with αCD3/αCD28 in presence of UA; details: ICG001 10 μM plus UA 50 μM, 48 h
Description: Splenic murine T cells were isolated from mice aged 6-20 weeks by negative selection with EasySep mouse T cell isolation kit (Stem cell) according to the manufacturer's instructions. To monitor T cell proliferation, purified T cells were loaded with CellTrace Violet (C34557 ThermoFisher Scientific). T cell activation was initiated using αCD3/CD28 activation beads (11456D; ThermoFisher Scientific) at a ratio of 25 μl dynabeads per 0.5×106 T-cells. Cells were activated with 25-50 μM Urolithin A (Tocris) or DMSO in T cell activation Medium (RPMI (ThermoFisher Scientific) 10% FBS (South America origin), 10 mM Hepes (Sigma), 1×Non-Essential Amino Acid, 1 mM Sodium Pyruvate, 50 µM β-Mercaptoethanol, 100 U/mL penicillin, 100 μg/mL streptomycin and 2 mM Glutamax (ThermoFisher Scientific) for the indicated durations. In selected experiments, cells were stimulated in the presence of inhibitors, namely TCFli (ICG-001; SelleckChem; […]) and PGC-lai (SR-18292, Sigma-Aldrich; […]). For subsequent analysis, activating beads were magnetically removed prior antibody staining. For human T cells, peripheral blood mononuclear cells were purified with a Ficoll-Paque (GE healthcare) gradient. T cells were enriched with EasySep Human T Cell Isolation Kit (StemCell) and activated with dynabead Human T-Activator CD3/CD28 for T Cell Expansion and Activation Kit (11131D; ThermoFisher Scientific), similar to murine T cell stimulation. When the subsequent activation and expansion of CAR T cells was studied, plates were coated with 1 μg/mL anti-human CD3 (αCD3; clone OKT3) and thawed PBMC were cultivated with […] anti-human CD28 (αCD28; 15E8, both Miltenyi Biotec) containing media for three days. (NutriT media (4Cell® Nutri-T media (Sartorius) containing 0.5% penicillin/streptomycin) supplemented with IL-7 (25 U/mL) and IL-15 […] (all Miltenyi Biotec)).
Tumors were minced and digested with Tumor & Tissue Dissociation Reagent (BD Horizon) for 30 min. The remaining organ pieces were filtered through a 70 µm cell strainer. Cells were then washed with PBS 1% BSA and 2 mM EDTA. Immune cells were enriched on a 30%/40%/75% Percoll gradient after a 1700 rpm 17 min centrifugation. Then, tumor immune filtrates or activated T cells were stained with Fixable Viability Dye-eF780 (65-0865-14; eBioscience), αCD45-FITC (30-F11; 11-0451-85; eBioscience), αCD11b-BV650 (M1/70; 56340; BD) α-CD11c-BV785 (HL3; 563735; BD), aLy6G-BV605 (53-6.7; 563005; BD), aLy6C-AF700 (HK1.4; 128024; Biolegend), aF4/80-PE (BM8; 12-4801-82, eBioscience), aPD-L1-PECy7 (MIH5; 25-5982-80, eBioscience); or with Fixable Viability Dye-eF780 (ebioscience), αCD45-BV786 (30-F11; 564225; BD), αCD4-BUV496 (GK1.5; 564667; BD), αCD8-BV605 (100744; Biolegend), aPD1-APC (J43; 17-9985-82; eBioscience), aTIM-3-PECy7 (RMT3-23; 119715; Biolegend), aCTLA4-PE (UC10-4B9; 106305; Biolegend) and aLag3-BV421 (C9B7W; 125221, Biolegend); or with Fixable Viability Dye-eF780 (eBioscience), αCD4-FITC (H129.19; 553650; BD), αCD8-APC (53-6.7; 17-0081-83; eBioscience), αCD44-AF400 (IM7; 103026; Biolegend), αCD62L-BV785 (MEL-14; 104440; Biolegend), αSca-1-PerCP-Cy5.5 (D7; 45-5981-82; eBioscience), αCD95-PE (Jo2; 554258; BD); or with Fixable Viability Dye-eF780 (eBioscience), αCD8-BV650 (53-6.7; 563234; BD), αCD4-BUV496 (GK1.5; 564667; BD), αCD127-APC (A7R34; 17-1271-82; eBioscience), αCD95-FITC (SA367H8;152605; Biolegend), αCD44-AF400 (IM7; 103026; Biolegend), αCD62L-BV785 (MEL-14; 104440; Biolegend), αSca-1-PerCP-Cy5.5 (D7; 45-5981-82; eBioscience) followed by intracellular staining of aTCF1-PE (S33-966; 564217; BD), or PGC-1α (sc-518025; D-5; santa cruz), or aCyclinD1 (MA5-28534, DCS-6; Invitrogen) with transcription factor buffer set kit (BD Biosciences). To study cytokine expression, tumor immune infiltrates were stimulated ex vivo with 20 ng/mL PMA and […] Ionomycin (Sigma) for 3 h in T cell activation medium with Brefeldin A (Biolegend). […]

[2] = 125 and 250 nM, Aβ1-42 72 hours

Structure (SMILES)	increase in the percentage of Mitotracker positive cells vs DMSO (mouse T lymphocytes) [%]	percentage of Mitotracker positive cells (mouse T lymphocytes; DMSO 44%) [%]	microglial activation (conclusion) [1]	neuroprotection in the inflammatory in vitro model (conclusion) [1]	microglial activation (OX-41) [1, 2]	neurite network of cortical neurons (MAP-2) [1, 2]	survival of cortical neurons (MAP-2) [1, 2]	UA-induced TSCM formation in presence of TCF-1 inhibitor (splenic murine T cells)
Cc1cc2c(cc1O)OC(C)(C)c1cc(O)c(C)cc1-2 [117A, 2,6,6,9-tetramethyl-6H-benzo[c]chromene-3,8-diol]	30	57.3	significantly reduce	neuroprotective	decrease	significantly protect	significantly protect	–
O=C1[C@H](Cc2ccc(O)cc2)N2C(=O)CCN(C(=O)NCc3ccccc3)[C@H]2CN1Cc1cccc2ccccc12 [ICG001]	–	–	–	–	–	–	–	abrogated
